The record followed here is US6583155B2, “Method for treating allergies using substituted pyrazoles” (priority 2000, dated 2003).

Test [1] deals with human T cells (PBMC from allergic donors) stimulated with ragweed extracts. Briefly: Ex vivo human T cell-proliferation assay, ragweed allergen extracts. As to conditions: PBMC from allergy donors, 7 days culture, 3H-thymidine incorporation. A general note: Dividing cells build labelled thymidine or BrdU into new DNA.
Test [2] deals with human T cells (PBMC from allergic donors) stimulated with house dust mite extracts. Briefly: Ex vivo human T cell-proliferation assay, house dust mite allergen extracts.
In test [3] the test system is human T cells (PBMC) stimulated with ConA. Briefly: Ex vivo human T cell-proliferation assay, ConA (pan-T cell mitogen) control. Conditions: pan-T cell mitogen specificity control.
For test [4], the system named is invariant chain (li) degradation in PBMC from human blood. Briefly: Monitoring cathepsin S inhibition in human blood: p10li fragment by Western blot. Conditions: incubation for 24 h, SDS-PAGE / Western blot. (In general: Immunoblotting shows a protein as a band on a membrane.)

“Also recorded” adds a separate entry of the source.

Take `CC(C)C[C@H](NC(=O)N1CCOCC1)C(=O)N[C@H](/C=C/S(=O)(=O)c1ccccc1)CCc1ccccc1` [LHVS, 4-morpholinecarboxamide, N-[(1S)-3-methyl-1-[[[(1S, 2E)-1-(2-phenylethyl)-3-(phenylsulfonyl)-2-propenyl]amino]carbonyl]butyl]-]: the “T cell proliferative responses to ragweed extracts (short and giant)” value in test [1] is recorded as “strongly inhibited; also recorded: inhibition”. Further, in test [2] (PBMC from allergy donors, 7 days culture, 3H-thymidine incorporation), the “T cell proliferative responses to house dust mite extracts (Der p and Der f)” value is “strongly inhibited; also recorded: inhibition”. Besides, the “T cell proliferative responses induced by ConA” value in test [3] is listed as “not affected”. In test [4], the “p10li fragment of invariant chain (block in degradation of li)” value is listed as “the p10li fragment was seen”.
`CS(=O)(=O)N1CCc2c(c(-c3ccc(Br)cc3)nn2CC(O)CN2CCC(n3c(=O)[nH]c4ccc(Cl)cc43)CC2)C1` (stereo not shown) [Example 8, 1-(1-{3-[3-(4-Bromo-phenyl)-5-methanesulfonyl-4,5,6,7-tetrahydro-pyrazolo[4,3-c]pyridin-1-yl]-2-hydroxy-propyl}-piperidin-4-yl)-6-chloro-1,3-dihydro-benzoimidazol-2-one]: the “T cell proliferative responses to ragweed extracts (short and giant)” value in test [1] is on record as “inhibition”. In addition, the “T cell proliferative responses to Der f extract” value in test [2] (PBMC from an allergy donor, titrated doses of compound, 7 days, 3H-thymidine incorporation (FIG. 3)) was “inhibition”.
With `Cc1cc(-c2nn(CC(O)CN3CCC(n4c(=O)[nH]c5ccc(Cl)cc54)CC3)c3c2CN(S(C)(=O)=O)CC3)ccc1Cl` (stereo not shown) [Example 53, 6-Chloro-1-(1-{3-[3-(4-chloro-3-methyl-phenyl)-5-methanesulfonyl-4,5,6,7-tetrahydro-pyrazolo[4,3-c]pyridin-1-yl]-2-hydroxy-propyl}-piperidin4-yl)-1,3-dihydro-benzoimidazol-2-one], the “T cell proliferative responses to ragweed extracts (short and giant)” value in test [1] is reported as “inhibition”.
